Tests used:
A549 cells = test: cell cycle analysis by flow cytometry (PI); type: cell-based, human; conditions: 24 h, control 14.92%
Method: Microtubules play an important role in maintaining the normal process of cell mitosis.
Figure 3 Compound 14b induced cell cycle arrest at the G2/M phase. (A) The PI-stained DNA content detected by flow cytometry. A549 cells were treated with or without compound 14b at concentrations of 10, 20 and 50 nM for 24 h; then, the cells were harvested for cell cycle analysis by flow cytometry. (B) Quantitative analysis of the percentage of cells in each cell cycle phase by CytExpert analysis software. The experiments were performed at least three times, and the results of the representative experiments are shown.
S Ⅳ. Biological evaluation methods
The cells grown in logarithmical phase were seeded in 96-well plates with the density of 5×10^3/well.
(§1) After 24 h, the medium containing different concentrations of tested compounds were added for another 48 h. Then, CCK-8 reagents were added to cells and continued to culture for 2 h. The optical density was recorded with a microplate reader at 570 nm (Thermo Scientific, Varioskan LUX). All the experiments were repeated independently at least three times and the IC50 values were calculated […]
S2. In vitro tubulin polymerization inhibition assay
The in vitro tubulin polymerization inhibition assay was conducted according to the manufacturer ’s instruction (cytoskeleton, cat. no. BK011P). Briefly, 5 μL of the tested compounds at the indicated concentrations which were prepared with the buffer solution (containing 80.0 mM piperazine-N,N-bis(2-ethanesulfonic acid) sequiso-dium salt (pH 6.9), 10.2% glycerol, 2.0 mM MgCl2, 1 mM GTP, and 0.5 mM EGTA) was added to the plate. After the mixture was warmed to 37 °C for 1 min, the reaction was initiated by the addition of 55 μL of the tubulin solution which was kept on ice in prior.
(§2) The fluorescence intensity enhancement (emission wavelength is 410 nm, excitation wavelength is 340 nm) was recorded every 60 s for 60 min in a multifunction microplate reader (Molecular Devices, Flex Station 3). […]

[1] = tested on: L-02 (normal human hepatocytes); test: CCK-8 cytotoxicity, L-02 normal cells; type: cell-based
Excerpt: A549 (non-small-cell-lung cancer cell line), Caski (human epithelial cervical cancer cell line), HepG2 (human liver carcinoma cell line), MCF-7 (human breast carcinoma cell line), C42B (human prostate cancer line C42B), L-02 (human normal hepatocytes), RWPE-1 (human prostate epithelial cells) and MCF-10A (human normal mammary epithelial cells) were obtained from National Collection of Authenticated Cell Cultures (Shanghai, China). A549/CDDP (A549 cell line resistant to cisplatin), C42B/ENZR (C42b cell line resistant to Enzalutamide), MCF-7/DOX (MCF-7 cell line resistant to doxorubicin), A2780/TAX (human ovarian cancer cell line A2780 resistant to taxol) and HCT-8/VCR (human ileocecum carcinoma cell lines HCT-8 resistant to vincristine) were kindly provided by Professor Junjian Wang and Professor Xingshu Li at Sun Yat-Sen University, China. […]
as §1, with “Then, CCK-8 reagents were added to cells and continued to culture for 2 h.” left out

[2] = tested on: MCF-7/DOX (MCF-7 cell line resistant to doxorubicin); test: CCK-8 cytotoxicity, MCF-7/DOX; type: cell-based; conditions: Homo sapiens, MCF7-DOX; 48 h, CCK-8, doxorubicin-resistant; read-out: IC50, Mean ± SE, MCF-7/DOX
Method: (§3) Besides the high cytotoxicity, drug resistance is the other limiting factor of chemotherapeutics. In this study, the cytotoxicities of compound 14b towards five kinds of drug-resistant cancer cell lines were also evaluated. Except three kinds of cell lines that are resistant to three drugs commonly used in clinical practice, two kinds of cell lines that are resistant to MTAs were also evaluated.
(§4) A549 (non-small-cell-lung cancer cell line), Caski (human epithelial cervical cancer cell line), HepG2 (human liver carcinoma cell line), MCF-7 (human breast carcinoma cell line), C42B (human prostate cancer line C42B), L-02 (human normal hepatocytes), RWPE-1 (human prostate epithelial cells) and MCF-10A (human normal mammary epithelial cells) were obtained from National Collection of Authenticated Cell Cultures (Shanghai, China). […]
as §1, with “Then, CCK-8 reagents were added to cells and continued to culture for 2 h.” left out
as §2

[3] = tested on: C42B/ENZR (C42b cell line resistant to Enzalutamide); test: CCK-8 cytotoxicity, C42B/ENZR; type: cell-based; conditions: Homo sapiens; 48 h, CCK-8, Enzalutamide-resistant; read-out: IC50, Mean ± SE, C42B/ENZR
Method: as §3, §4
as §1, with “Then, CCK-8 reagents were added to cells and continued to culture for 2 h.” left out
as §2

COc1ccc(C(=O)c2ccc3c(ccn3C)c2)c2c1C=CC(C)(C)O2 [compound 14b, (5-methoxy-2,2-dimethyl-2H-chromen-8-yl)(1-methyl-1H-indol-5-yl)methanone]
percentage of cells in G2/M (A549 cells; A549, 10 nM): 26.88% | percentage of cells in G2/M (A549 cells; A549, 20 nM): 35.02% | percentage of cells in G2/M (A549 cells; A549, 50 nM): 52.67% | IC50 ([1]; Homo sapiens, Hepatocyte, 48 h, CCK-8, normal cells, read-out: IC50, Mean ± SE, L-02): 1260 ± 214 nM | Selectivity Ratio ([1]; IC50 L-02 / IC50 Hep-G2): 16.97 | IC50 [2]: 51 ± 24 nM | IC50 [3]: 42 ± 11 nM
